{
  "source": "paper PMC9029893",
  "about": "(International Journal of Molecular Sciences, 2022)",
  "key": {"HUVEC cells [1]": {"test_system": "HUVEC cells", "assay": "Glucose utilization assay (2-NBDG uptake)", "format": "cell-based, human", "settings": "24 h, then insulin and 2-NBDG", "experimental": "HUVEC were seeded at a density of 20,000 cells per well in 48-well plates, and were cultured in standard conditions for 24 h (medium EGM-2; volume 0.2 mL). Following this, compounds 1–8 were added at concentrations of 0.1 and 0.3 mM, and the HUVECs were incubated for another 24 h. Cells treated with ᴅ-glucose (final concentration in a sample 0.1 mM) were used as positive controls. On the following day, the cells were rinsed with PBS (Biomed Lublin, Lublin, Poland) and cultured for two hours in glucose-free DMEM medium supplemented with 1% BSA (bovine serum albumin, Sigma, St. Louis, MO, USA). Then, the cells were co-treated with insulin (final concentration 0.0001 mM) for 30 min. Afterwards, the medium was discarded and the cells were treated with 2-NBDG (final concentration 0.05 mM) for 30 min, followed by removal of the solutions of each well. The cells were washed twice with 100 µL PBS, and lysed using 1% Triton X-100 solution in PBS. The fluorescence was recorded using a microplate reader (Biotek, Instruments, Winooski, VT, USA) at 480/530 nm.\nThe concentration of intracellular 2-NBDG was calculated using a calibration curve obtained using 2-NBDG at concentrations ranging from 0.0001 to 0.025 mM in lysis buffer. The results are presented as mean ± SD, n = 4–6. The coefficient of variation for the assay was calculated (CV = 2.2%, n = 8)."}, "HUVEC cells [2]": {"test_system": "HUVEC cells", "assay": "HUVEC integrity in RTCA-DP system (normalized cell index)", "format": "cell-based, human", "experimental": "The effects of sulfonamides 1–8 on the integrity and barrier properties of HUVEC were examined in real-time using a cell electric impedance monitoring system (Real-Time Cell Analyzer; Roche & ACEA Biosciences, Santa Clara, CA, USA), which is based on tracking electrical impedance signals. Any changes in cell status, adhesion, and morphology are expressed by parameter Cell Index (CI). The experimental protocol has been described previously. Briefly, the cells were seeded at a density of 15,000 cells per well on E-16 plates (Roche & ACEA Biosciences, Santa Clara, CA, USA), and cultured until the cells achieved plateau phase. Then, the medium was discarded from each well, and the solutions of the test compounds dissolved in cell culturing medium (100 μL) or pure medium (100 μL, control) were added. The measurements were then carried out for 48 h. The results are presented as mean ± SD of ‘normalized cell index’ (nCI), which is calculated by the division of a CI value at a certain time point by the CI value at a reference time point. The experiments were conducted in multiplicate (n = 4–6). The method was validated and the coefficient of variability (CV) was calculated as 9.17%–15.2%, depending on the measured time point (n = 6)."}, "[3]": {"test_system": "tissue plasminogen activator (t-PA) release from HUVEC", "assay": "t-PA release from HUVEC (ELISA)", "format": "cell-based, human", "settings": "24 h, HUVEC supernatants", "experimental": "The influence on tissue plasminogen activator release from HUVECs was assessed using an ELISA kit (Abcam, Cambridge, UK). HUVECs seeded at a density of 10,000 per well on 96-well plates were co-incubated with compounds 1–5 at the concentrations of 0.3 and 1.0 mM for an additional 24 h (37 °C, 5% CO2). The cell supernatants were discarded into Eppendorf tubes and preserved at −20° C until analysis. Before the tests, the samples were thawed at room temperature for 15 min, and diluted 2.5-fold with diluent in Elisa kit. The measurements of t-PA concentrations in cell supernatants were conducted according to the manufacturer’s protocol using 3,3’,5,5’-tetramethylbenzidine (TMB) as a chromogenic substrate. The concentration of t-PA in HUVEC supernatants was determined using a calibration curve (R^2 = 0.9936). The results are presented as mean ± SD, n = 6. The CV for the applied method was 7.21%."}, "factor X": {"molecular_target": "T1, factor X (Homo sapiens, UniProt P00742)", "T1 construct": "50 µL of four-fold diluted PPP, 50 μL of deficient plasma factor X, 10 μL of the examined compound; from tissue; host or cells: platelet-poor plasma (PPP), mixed with factor X-depleted plasma (Bio-Ksel)", "T1 sequence (P00742 41-488)": "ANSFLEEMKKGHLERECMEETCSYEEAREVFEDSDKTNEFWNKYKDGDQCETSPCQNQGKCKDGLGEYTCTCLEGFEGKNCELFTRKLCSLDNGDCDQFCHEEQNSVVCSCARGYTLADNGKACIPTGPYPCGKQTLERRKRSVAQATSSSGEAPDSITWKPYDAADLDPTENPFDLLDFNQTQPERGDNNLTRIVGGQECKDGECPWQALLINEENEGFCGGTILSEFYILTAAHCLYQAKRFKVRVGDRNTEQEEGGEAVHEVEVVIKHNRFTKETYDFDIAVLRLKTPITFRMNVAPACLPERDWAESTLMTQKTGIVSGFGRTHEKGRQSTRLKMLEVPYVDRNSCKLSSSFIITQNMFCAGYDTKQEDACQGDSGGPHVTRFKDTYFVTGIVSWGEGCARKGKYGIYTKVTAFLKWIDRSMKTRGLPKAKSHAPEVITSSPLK", "assay": "Factor X activity", "format": "biochemical", "experimental": "The activity of FX was measured optically using deficient plasma factor X [75]. The content of each sample was as follows: 50 µL of four-fold diluted PPP, 50 μL of deficient plasma factor X, 10 μL of the examined compound, and 100 µL PT reagent. The control samples contained 10 μL of distilled water and methanol (1:1). The measurement of PT time was recorded using a CoagChrom-3003 coagulometer (Bio-Ksel, Grudziadz, Poland). The activity of factor X was counted using a calibration curve (R^2 = 0.999) performed on a calibrator diluted in the range 1:5–1:80 [76]. The variation in plasma coagulation time is proportional to the concentration and activity of factor X in the patient plasma treated with the tested compounds. The coefficient of variability for the method was calculated as CV = 1.80%. The reference values for factor X activity ranged from 77–131%."}, "[4]": {"test_system": "coagulation in human citrate plasma", "assay": "Coagulation assay (endogenous thrombin generation)", "format": "biochemical", "experimental": "These reagents induce a feedback reaction leading to the generation of endogenous thrombin, and coagulation. The other experimental conditions were the same as for the CL-test (Section 4.12).\nThe obtained curves were analyzed using dedicated software that estimates the following parameters: TGt—thrombin generation time (s), Fmax—maximum clotting (%T), Tf—plasma clotting time (s), Fvo—initial plasma clotting velocity (%T/min), Sf—area under the clot formation curve (%Txmin), Tc—clot stabilization time (s), S—area under the curve of coagulation (%Txmin)."}},
  "data": [
    {"compound": "CN(C)C(=N)N=C(N)NS(=O)(=O)C1CCCCC1", "note": "[Compound 3]", "values": [
      {"measurement": "Glucose uptake (intracellular 2-NBDG)", "setting": "HUVEC cells [1]; 0.1 mM", "result": "0.0137 ± 0.0003", "unit": "mM"},
      {"measurement": "Glucose uptake (intracellular 2-NBDG)", "setting": "HUVEC cells [1]; 0.3 mM", "result": "0.0144 ± 0.0005", "unit": "mM"},
      {"measurement": "normalized Cell Index (nCI)", "setting": "HUVEC cells [2]; 0.3 mM, 3 hours", "result": "0.680 ± 0.083"},
      {"measurement": "normalized Cell Index (nCI)", "setting": "HUVEC cells [2]; 0.3 mM, 6 hours", "result": "0.837 ± 0.213"},
      {"measurement": "normalized Cell Index (nCI)", "setting": "HUVEC cells [2]; 0.3 mM, 12 hours", "result": "0.927 ± 0.212"},
      {"measurement": "normalized Cell Index (nCI)", "setting": "HUVEC cells [2]; 0.3 mM, 24 hours", "result": "0.969 ± 0.156"},
      {"measurement": "normalized Cell Index (nCI)", "setting": "HUVEC cells [2]; 0.3 mM, 36 hours", "result": "0.714 ± 0.035"},
      {"measurement": "normalized Cell Index (nCI)", "setting": "HUVEC cells [2]; 1.0 mM, 3 hours", "result": "0.233 ± 0.039"},
      {"measurement": "normalized Cell Index (nCI)", "setting": "HUVEC cells [2]; 1.0 mM, 6 hours", "result": "0.554 ± 0.047"},
      {"measurement": "normalized Cell Index (nCI)", "setting": "HUVEC cells [2]; 1.0 mM, 12 hours", "result": "0.616 ± 0.042"},
      {"measurement": "normalized Cell Index (nCI)", "setting": "HUVEC cells [2]; 1.0 mM, 24 hours", "result": "0.748 ± 0.061"},
      {"measurement": "normalized Cell Index (nCI)", "setting": "HUVEC cells [2]; 1.0 mM, 36 hours", "result": "0.694 ± 0.054"},
      {"measurement": "Released t-PA", "setting": "[3]; 0.3 mM", "result": "1550.9 ± 135.2", "unit": "pg/mL"},
      {"measurement": "Released t-PA", "setting": "[3]; 1.0 mM", "result": "1267.1 ± 350.6", "unit": "pg/mL"},
      {"measurement": "Factor X activity", "setting": "factor X; 0.3 mM", "result": "105.60 ± 2.30", "unit": "%"},
      {"measurement": "Factor X activity", "setting": "factor X; 0.6 mM", "result": "103.40 ± 7.23", "unit": "%"},
      {"measurement": "Factor X activity", "setting": "factor X; 1.5 mM", "result": "104.20 ± 8.14", "unit": "%"},
      {"measurement": "Fmax—maximum clotting", "setting": "[4]; 0.06 mM", "result": "84.78 ± 5.57", "unit": "%T"},
      {"measurement": "Fvo—initial plasma clotting velocity", "setting": "[4]; 0.06 mM", "result": "108.56 ± 28.63", "unit": "%T/min"},
      {"measurement": "Sc—area under the curve of a stable clot formation", "setting": "[4]; 0.06 mM", "result": "586.27 ± 95.97", "unit": "%T x min"},
      {"measurement": "Sf—area under the clot formation curve", "setting": "[4]; 0.06 mM", "result": "102.35 ± 29.66", "unit": "%T x min"},
      {"measurement": "S—overall potential of clot formation", "setting": "[4]; 0.06 mM", "result": "1628.36 ± 118.58", "unit": "%T x min"},
      {"measurement": "TGt—thrombin generation time", "setting": "[4]; 0.06 mM", "result": "155.00 ± 20.58", "unit": "s"},
      {"measurement": "Tf—plasma clotting time", "setting": "[4]; 0.06 mM", "result": "108.30 ± 35.15", "unit": "s"},
      {"measurement": "Fmax—maximum clotting", "setting": "[4]; 0.3 mM", "result": "82.66 ± 7.51", "unit": "%T"},
      {"measurement": "Fvo—initial plasma clotting velocity", "setting": "[4]; 0.3 mM", "result": "113.42 ± 23.98", "unit": "%T/min"},
      {"measurement": "Sc—area under the curve of a stable clot formation", "setting": "[4]; 0.3 mM", "result": "766.41 ± 394.94", "unit": "%T x min"},
      {"measurement": "Sf—area under the clot formation curve", "setting": "[4]; 0.3 mM", "result": "100.51 ± 28.00", "unit": "%T x min"},
      {"measurement": "S—overall potential of clot formation", "setting": "[4]; 0.3 mM", "result": "1580.91 ± 150.03", "unit": "%T x min"},
      {"measurement": "TGt—thrombin generation time", "setting": "[4]; 0.3 mM", "result": "139.60 ± 7.44", "unit": "s"},
      {"measurement": "Tf—plasma clotting time", "setting": "[4]; 0.3 mM", "result": "108.58 ± 33.64", "unit": "s"},
      {"measurement": "Fmax—maximum clotting", "setting": "[4]; 0.6 mM", "result": "82.44 ± 5.61", "unit": "%T"},
      {"measurement": "Fvo—initial plasma clotting velocity", "setting": "[4]; 0.6 mM", "result": "127.78 ± 40.82", "unit": "%T/min"},
      {"measurement": "Sc—area under the curve of a stable clot formation", "setting": "[4]; 0.6 mM", "result": "560.45 ± 102.47", "unit": "%T x min"},
      {"measurement": "Sf—area under the clot formation curve", "setting": "[4]; 0.6 mM", "result": "107.67 ± 29.19", "unit": "%T x min"},
      {"measurement": "S—overall potential of clot formation", "setting": "[4]; 0.6 mM", "result": "1580.02 ± 119.57", "unit": "%T x min"},
      {"measurement": "TGt—thrombin generation time", "setting": "[4]; 0.6 mM", "result": "158.40 ± 13.03", "unit": "s"},
      {"measurement": "Tf—plasma clotting time", "setting": "[4]; 0.6 mM", "result": "112.94 ± 35.34", "unit": "s"},
      {"measurement": "Fmax—maximum clotting", "setting": "[4]; 1.5 mM", "result": "77.50 ± 8.20", "unit": "%T"},
      {"measurement": "Fvo—initial plasma clotting velocity", "setting": "[4]; 1.5 mM", "result": "135.98 ± 31.06", "unit": "%T/min"},
      {"measurement": "Sc—area under the curve of a stable clot formation", "setting": "[4]; 1.5 mM", "result": "537.91 ± 99.63", "unit": "%T x min"},
      {"measurement": "Sf—area under the clot formation curve", "setting": "[4]; 1.5 mM", "result": "83.28 ± 17.34", "unit": "%T x min"},
      {"measurement": "S—overall potential of clot formation", "setting": "[4]; 1.5 mM", "result": "1494.31 ± 163.29", "unit": "%T x min"},
      {"measurement": "TGt—thrombin generation time", "setting": "[4]; 1.5 mM", "result": "165.40 ± 28.25", "unit": "s"},
      {"measurement": "Tf—plasma clotting time", "setting": "[4]; 1.5 mM", "result": "93.42 ± 26.49", "unit": "s"}
    ]}
  ]
}
